Source: ChEMBL document CHEMBL3098120, “Synthesis and analysis of activity of a potential anti-melanoma prodrug with a hydrazine linker” (Eur J Med Chem, 2014)
The source made the active and inactive calls. No cut-off for these calls is given here.

Legend:
[1] = system: B16-F10; test: Antitumor activity against mouse B16F10 cells […] in C57BL/6 mouse assessed as reduction of tumor size at 100 ug administered as intratumorally for 3 days; format: functional, cell-based
[2] = Prodrug activation mediated by mushroom tyrosinase assessed as 5,6-dihydroxy-1H-indazol-1-yl 4-[bis-(2-chloroethyl)amino]benzoate formation up to 120 mins by UV-Vis spectroscopy; settings: agaricus bisporus, 2 h
[3] = system: B16-F10; test: Cytotoxicity against mouse B16F10 cells at 250 uM after 24 to 48 hrs by MTT assay; format: functional, cell-based
[4] = Prodrug activation mediated by mushroom tyrosinase assessed as 4-[bis-(2-chloroethyl) amino]benzoic cid formation up to 120 mins by TLC, HPLC or MS analysis; settings: agaricus bisporus, 2 h
[5] = Prodrug activation mediated by mushroom tyrosinase assessed as N-{4-[bis-(2-chloroethyl)amino]benzoyl}-N''-(4-hydroxybenzylidene)hydrazine formation up to 120 mins by TLC, HPLC or MS analysis; settings: agaricus bisporus, 2 h
[6] = system: NIH3T3; test: Cytotoxicity against mouse NIH/3T3 cells at 250 uM after 24 to 48 hrs by MTT assay; format: cell-based; settings: nih3t3, 250 µM
[7] = Cytotoxicity against mouse HECa10 cells at 250 uM after 24 to 48 hrs by MTT assay; format: cell-based

Row | Compound | Activity [1] | Drug metabolism [2] | Activity [3] | Drug metabolism [4] | Drug metabolism [5] | Activity [6] | Activity [7]
1 | N[C@@H](Cc1ccc(N(CCCl)CCCl)cc1)C(=O)O | Active |  |  |  |  |  | 
2 | O=C(NNCc1ccc(O)cc1)c1ccc(N(CCCl)CCCl)cc1 | Active | Active | Active | Not Active | Active | Toxic | Toxic
